{"source": "patent US20160220567A1", "about": "“COMPOSITION FOR TREATING OR PREVENTING BONE DISEASES, COMPRISING HALOFUGINONE AS ACTIVE INGREDIENT” (THE CATHOLIC UNIVERSITY OF KOREA INDUSTRY-ACADEMIC …, priority 2013, published 2016)", "key": {"[1]": {"system": "Th17, Th1 and Th2 cells from splenocytes", "assay": "Differentiation of Th17-, Th1-, and Th2 cells from mouse splenocytes by halofuginone treatment", "assay_type": "cell-based", "description": "Splenocytes were obtained from mice, that is, the spleens removed from the mice and the spleen tissues were thinly ground using a tearing slide and the red blood cells (RBC) in the splenocytes were removed with the RBC lysis solution. Then, PBS buffer solution was added thereto, and the mixture was centrifuged, and washed to obtain splenocytes. Then, the singe cells (1 ? 10^6) isolated from the spleens were aliquoted into a 24-well plate coated with anti-CD3 antibody (1 μg/mL) were treated under the condition of capable of stimulating Th17 cells (anti-CD28 antibody (1 μg/mL), TGF-β (2 ng/ mL), IL-6 (20 ng/mL), anti-IL-4 (10 μg/mL), and anti-IFN-γ (10 μg/mL); the condition of capable of stimulating Th1 cells (anti-CD28 antibody (1 μg/mL), IL-12 (10 ng/mL), and anti-IL-4 (10 μg/mL)); or the condition of capable of stimulating Th2 cells (anti-CD28 antibody (1 μg/mL), IL-4 (10 ng/mL), and anti-IFN-γ (10 μg/mL)); and the cells were cultured for 3 days, and in particular, cultured after treating the cells with halofuginone at respective concentration and cultured. Specifically, DMSO treatment was used for the control group."}, "[2]": {"system": "joint tissue of mouse with arthritis", "assay": "Degree of joint destruction by immunohistochemical staining of CIA mouse joints", "assay_type": "in vivo", "conditions": "CIA mice, according to the concentration of treatment, FIG. 1B", "description": "(§1) For the construction of a mouse model with collagen-induced arthritis (hereinafter, referred to as “CIA”), a 6-week old male DBA/1J mouse was subjected to primary immunization by intradermal injection after mixing the bovine type II collagen (hereinafter, referred to as “CII”) and complete Freud's adjuvant (CFA) in an amount of 100 μL, respectively. After a week thereafter, halofuginone was injected intraperitoneally at 3 day intervals at a concentration of 100 μg/kg and 500 μg/kg, respectively (9 weeks).\nTo examine the therapeutic effect of treating halofuginone of the present invention on arthritis, the mouse prepared in Example <1-1> (the mouse with arthritis injected with halofuginone) was sacrificed and the degree of joint destruction was analyzed via immunohistochemical staining method. The group treated with a solution in which DMSO was diluted in saline was used as the control group.\nThe immunohistochemical staining method was performed by the process shown below. The joints of the mice group used above were collected, fixed with 10% neutral buffered formalin, the bones were decalcified with EDTA and embedded in paraffin, the joint tissue was prepared into 7 μm-thick slices and attached to slides. […] The immunohistochemical staining method was used in the joints of mice and analyzed under an optical microscope. […]"}, "osteoclasts": {"system": "osteoclasts", "assay": "Cell cycle during osteoclast differentiation by 7-AAD and BrdU staining", "assay_type": "cell-based, mouse", "conditions": "FIG. 5D", "text": "(§2) Murine bone marrow cells were differentiated for 5 days by stimulating with M-CSF, RANKL, and halofuginone and subjected to TRAP staining according to the method described in Example <1-8> to confirm the number of TRAP positive cells. Additionally, the expression of c-Fos, JunB, and Jpd2 in the bone marrow cells were confirmed by real-time PCR according to the method described in Example <1-6>. Meanwhile, to examine the effect of halofuginone on cell cycle during the process of osteoclast differentiation, osteoclasts were subjected to 7-AAD and BrdU staining."}, "[3]": {"system": "murine bone marrow cells differentiating into osteoclasts", "assay": "Murine bone marrow cell osteoclast differentiation (M-CSF, RANKL): TRAP staining and real-time PCR", "assay_type": "cell-based, mouse", "conditions": "5 days", "description": "For test animals, 6 to 7-week old male DBA-1 mice were used. […] Bone marrow cells were isolated from the tibia and the femur of mice, and the RBC of the isolated bone marrow cells were lysed, inoculated into a 24-well plate after diluting in 10% Minimum α-MEM to a concentration of 2 ? 10^5 cells/well, and cultured for 12 hours. The adherent cells were removed, stimulated with a macrophage-colony stimulating factor (M-CSF) and cultured for 3 days, and treated with M-CSF (10 ng/mL), receptor activator of NF-κB ligand (RANKL; 50 ng/mL), and halofuginone and cultured for 2 days. The medium was replaced in 2 days, retreated in the same manner, and cultured for 2 days.\nas §2, with “<1-6>.” for “<1-6>. Meanwhile, to examine the effect of halofuginone on cell cycle during the process of osteoclast differentiation, osteoclasts were subjected to 7-AAD and BrdU staining.”"}, "[4]": {"system": "mouse model with collagen-induced arthritis", "assay": "Arthritis index score in mouse model with collagen-induced arthritis (CIA)", "assay_type": "in vivo", "description": "as §1\nTo examine the therapeutic effect of treating halofuginone of the present invention on arthritis, the clinical score of the joint inflammation of the mouse prepared in Example <1-1> (the mouse with arthritis injected with halofuginone) was measured while observing the mouse. The group treated with a solution in which DMSO was diluted in saline was used as the control group.\nThe clinical score was evaluated using a clinical score system, in which the respective score for swelling and redness on toes or caudal regions was determined by observing daily the degree of the progress of the joint inflammation on the arthritis lesion of the mouse by the naked eye."}, "[5]": {"conditions": "condition of differentiating Th17 cells, 3 days, vs DMSO, FIG. 3A"}}}
{"compound": "O=C(C[C@H]1NCCC[C@@H]1O)Cn1cnc2cc(Br)c(Cl)cc2c1=O", "note": "(racemic) [halofuginone]", "values": [{"measurement": "Th17 cells", "setting": "[1]; [5]", "value": "inhibited"}, {"measurement": "Treg cells", "setting": "[1]; [5]", "value": "increased"}, {"measurement": "production of IL-4", "setting": "[1]; conditions of differentiating Th1 cells, IFN-gamma, and Th2 cells", "value": "did not affect"}, {"measurement": "joint destruction", "setting": "[2]", "value": "significantly decrease"}, {"measurement": "progress from G0/G1 into S phase", "setting": "osteoclasts; 7-AAD and BrdU staining", "value": "increased"}, {"measurement": "expression of ccnd1 encoding Cyclin D1", "setting": "osteoclasts", "value": "increased"}, {"measurement": "mRNA expression of Jpd2", "setting": "[3]; FIG. 5C", "value": "inhibits"}, {"measurement": "mRNA expression of JunB", "setting": "[3]; FIG. 5C", "value": "inhibits"}, {"measurement": "mRNA expression of c-Fos", "setting": "[3]; FIG. 5C", "value": "inhibits"}, {"measurement": "expression of factors associated with the differentiation of osteoclasts", "setting": "[3]; TRAP staining, FIG. 5A", "value": "inhibits"}, {"measurement": "arthritis index score", "setting": "[4]; CIA DBA/1J mice, 100 and 500 μg/kg intraperitoneally at 3 day intervals, vs DMSO in saline control, FIG. 1A", "value": "decrease in the arthritis index score in a dose-dependent manner"}, {"measurement": "arthritis lesion by the naked eye", "setting": "[4]; CIA mice, 500 μg/kg", "value": "no arthritis lesion at all"}]}
